From publication PMC7311426, “An amphipathic peptide with antibiotic activity against multidrug-resistant Gram-negative bacteria” (Nature Communications, 2020)
In brackets after ≈: the same amount, converted by molar mass. Like-named read-outs stand apart in the source and are kept apart here.

Assays:
Test in all cases: microbe, parasite or virus in culture
[1] = test system: A. baumannii; conditions: Acinetobacter baumannii, mode of 6 replicates
How it was run: (§1)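 MICs were scored by eye after 18-20 h static incubation at 37 °C, with bacteria at 5 × 10^5 CFU mL^−1 in MHB. Peptides were serially diluted 2-fold over 12 points, top 128 or 64 μg mL^−1. CAMHB (CLSI) and 1% agarose-MHB variants were also run, at least six replicates.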

[2] = test system: E. coli; conditions: Escherichia coli
How it was run: as §1

[3] = test system: K. pneumoniae; conditions: Klebsiella pneumoniae
How it was run: as §1

[4] = test system: P. aeruginosa; conditions: Pseudomonas aeruginosa
How it was run: as §1

## C[C@@H](O)[C@H]1C(=O)N2C(C(=O)O)=C(S[C@@H]3CN[C@H](C(=O)N(C)C)C3)[C@H](C)[C@H]12 [Meropenem, meropenem, reference compound]
[1]; ATCC19636, read-out: BMD MIC, A. baumannii ATCC 19636 type strain, CAMHB
  MIC: 1 µg/mL (≈ 2.61 µM)
[1]; ATCC19636, read-out: BMD MIC, A. baumannii ATCC 19636 type strain, MHB
  MIC: 0.5 µg/mL (≈ 1.3 µM)
[1]; read-out: BMD MIC, A. baumannii Greece CI, XDR, PmxR, MHB
  MIC: > 16 µg/mL
[2]; ATCC25922, read-out: BMD MIC, E. coli ATCC 25922 FDA control strain, CAMHB, mode of 6 replicates
  MIC: ≤ 0.06 µg/mL
[2]; ATCC25922, read-out: BMD MIC, E. coli ATCC 25922 FDA control strain, MHB, mode of 6 independent biological replicates
  MIC: 0.015 µg/mL (≈ 0.0391 µM)
[2]; ATCC700926 / MG1655, read-out: BMD MIC
  MIC: ≤ 0.03 µg/mL
[2]; ATCC700928, read-out: BMD MIC, E. coli ATCC 700928 CFT073 UPEC, CAMHB, mode of 6 replicates
  MIC: ≤ 0.25 µg/mL
[2]; read-out: BMD MIC
  MIC: ≤ 0.25 µg/mL
[2]; read-out: MIC against E. coli AID#172 MDR clinical isolate, BMD
  MIC: 0.125 µg/mL (≈ 0.326 µM)
[2]; read-out: MIC against ESBL producing E. coli DSA 443, BMD
  MIC: 0.032 µg/mL (≈ 0.0834 µM)
[2]; read-out: MIC, broth microdilution, E. coli AUD172 parent strain not exposed to drug
  MIC: 0.015 µg/mL (≈ 0.0391 µM)
[2]; read-out: MIC, broth microdilution, E. coli AUD172 spontaneous mutant, AA139 selection 4X, plate 2, colony 2, drug-free passage 1
  MIC: 0.015 µg/mL (≈ 0.0391 µM)
[2]; read-out: MIC, broth microdilution, E. coli AUD172 spontaneous mutant, AA139 selection 4X, plate 2, colony 2, drug-free passage 5
  MIC: 0.03 µg/mL (≈ 0.0782 µM)
[3]; ATCC13883, read-out: BMD MIC, K. pneumoniae ATCC 13883 type strain (polymyxin/colistin heteroresistant), MHB, mode of 6 replicates
  MIC: ≤ 0.25 µg/mL
[3]; ATCC700603, read-out: BMD MIC, K. pneumoniae ATCC 700603 (K6), MDR, OXA-2/SHV-18, CAMHB, mode of 6 replicates
  MIC: 0.06 µg/mL (≈ 0.156 µM)
[3]; ATCC700603, read-out: BMD MIC, K. pneumoniae ATCC 700603 (K6), MDR, OXA-2/SHV-18, MHB, mode of 6 replicates
  MIC: ≤ 0.25 µg/mL
[3]; BAA2146, read-out: BMD MIC, K. pneumoniae BAA-2146, MDR, ESBL, NDM-1 pos, MHB, mode of 6 replicates
  MIC: > 32 µg/mL
[3]; read-out: BMD MIC, K. pneumoniae Greece CI 8_GR_13, XDR, KPC-2, PmxR, MHB, mode of 6 replicates
  MIC: > 32 µg/mL
[3]; read-out: MIC, broth microdilution, K. pneumoniae 3010 spontaneous mutant, AA139 selection 4X, plate 1, colony 1, drug-free passage 1
  MIC: 0.03 µg/mL (≈ 0.0782 µM)
[3]; read-out: MIC, broth microdilution, K. pneumoniae 3010 spontaneous mutant, AA139 selection 4X, plate 1, colony 1, drug-free passage 5
  MIC: 0.015 µg/mL (≈ 0.0391 µM)
[3]; read-out: MIC, broth microdilution, K. pneumoniae 3010 spontaneous mutant, AA139 selection 8X, plate 1, colony 1, drug-free passage 1
  MIC: 0.03 µg/mL (≈ 0.0782 µM)
[3]; read-out: MIC, broth microdilution, K. pneumoniae 3010 spontaneous mutant, AA139 selection 8X, plate 1, colony 1, drug-free passage 5
  MIC: 0.03 µg/mL (≈ 0.0782 µM)
[3]; read-out: MIC, broth microdilution, K. pneumoniae ST258 spontaneous mutant, AA139 selection 4X, plate 1, colony 1, drug-free passage 1
  MIC: > 4 µg/mL
[3]; read-out: MIC, broth microdilution, K. pneumoniae ST258 spontaneous mutant, AA139 selection 4X, plate 1, colony 1, drug-free passage 5
  MIC: > 4 µg/mL
[4]; ATCC27853, read-out: BMD MIC, P. aeruginosa ATCC 27853 control strain, CAMHB, mode of 6 replicates
  MIC: ≤ 0.25 µg/mL
[4]; ATCC27853, read-out: MIC, broth microdilution, P. aeruginosa ATCC 27853 spontaneous mutant, AA139 selection 4X, plate 1, colony 1, drug-free passage 1
  MIC: 0.25 µg/mL (≈ 0.652 µM)
[4]; ATCC27853, read-out: MIC, broth microdilution, P. aeruginosa ATCC 27853 spontaneous mutant, AA139 selection 4X, plate 1, colony 1, drug-free passage 5
  MIC: 0.5 µg/mL (≈ 1.3 µM)
[4]; ATCC27853, read-out: MIC, broth microdilution, P. aeruginosa ATCC 27853 spontaneous mutant, AA139 selection 4X, plate 1, colony 2, drug-free passage 1
  MIC: 0.5 µg/mL (≈ 1.3 µM)
[4]; ATCC27853, read-out: MIC, broth microdilution, P. aeruginosa ATCC 27853 spontaneous mutant, AA139 selection 4X, plate 1, colony 2, drug-free passage 5
  MIC: 0.25 µg/mL (≈ 0.652 µM)
[4]; ATCC27853, read-out: MIC, broth microdilution, P. aeruginosa ATCC 27853 spontaneous mutant, AA139 selection 4X, plate 1, colony 3, drug-free passage 1
  MIC: 1 µg/mL (≈ 2.61 µM)
[4]; ATCC27853, read-out: MIC, broth microdilution, P. aeruginosa ATCC 27853 spontaneous mutant, AA139 selection 4X, plate 1, colony 3, drug-free passage 5
  MIC: 0.5 µg/mL (≈ 1.3 µM)
[4]; ATCC27853, read-out: MIC, broth microdilution, P. aeruginosa ATCC 27853 spontaneous mutant, AA139 selection 4X, plate 1, colony 4, drug-free passage 1
  MIC: 1 µg/mL (≈ 2.61 µM)
[4]; ATCC27853, read-out: MIC, broth microdilution, P. aeruginosa ATCC 27853 spontaneous mutant, AA139 selection 4X, plate 1, colony 4, drug-free passage 5
  MIC: 0.5 µg/mL (≈ 1.3 µM)
[4]; ATCC27853, read-out: MIC, broth microdilution, P. aeruginosa ATCC 27853 spontaneous mutant, AA139 selection 4X, plate 1, colony 5, drug-free passage 1
  MIC: 0.25 µg/mL (≈ 0.652 µM)
[4]; ATCC27853, read-out: MIC, broth microdilution, P. aeruginosa ATCC 27853 spontaneous mutant, AA139 selection 4X, plate 1, colony 5, drug-free passage 5
  MIC: 0.5 µg/mL (≈ 1.3 µM)
[4]; ATCC27853, read-out: MIC, broth microdilution, P. aeruginosa ATCC 27853 spontaneous mutant, AA139 selection 4X, plate 1, colony 6, drug-free passage 1
  MIC: 0.5 µg/mL (≈ 1.3 µM)
[4]; ATCC27853, read-out: MIC, broth microdilution, P. aeruginosa ATCC 27853 spontaneous mutant, AA139 selection 4X, plate 1, colony 6, drug-free passage 5
  MIC: 0.5 µg/mL (≈ 1.3 µM)
[4]; ATCC27853, read-out: MIC, broth microdilution, P. aeruginosa ATCC 27853 spontaneous mutant, AA139 selection 4X, plate 2, colony 1, drug-free passage 1
  MIC: 0.25 µg/mL (≈ 0.652 µM)
[4]; ATCC27853, read-out: MIC, broth microdilution, P. aeruginosa ATCC 27853 spontaneous mutant, AA139 selection 4X, plate 2, colony 1, drug-free passage 5
  MIC: 0.25 µg/mL (≈ 0.652 µM)
[4]; ATCC27853, read-out: MIC, broth microdilution, P. aeruginosa ATCC 27853 spontaneous mutant, AA139 selection 4X, plate 2, colony 2, drug-free passage 1
  MIC: 0.5 µg/mL (≈ 1.3 µM)
[4]; ATCC27853, read-out: MIC, broth microdilution, P. aeruginosa ATCC 27853 spontaneous mutant, AA139 selection 4X, plate 2, colony 2, drug-free passage 5
  MIC: 0.25 µg/mL (≈ 0.652 µM)
[4]; ATCC27853, read-out: MIC, broth microdilution, P. aeruginosa ATCC 27853 spontaneous mutant, AA139 selection 4X, plate 2, colony 3, drug-free passage 1
  MIC: 0.5 µg/mL (≈ 1.3 µM)
[4]; ATCC27853, read-out: MIC, broth microdilution, P. aeruginosa ATCC 27853 spontaneous mutant, AA139 selection 4X, plate 2, colony 3, drug-free passage 5
  MIC: 0.25 µg/mL (≈ 0.652 µM)
[4]; ATCC27853, read-out: MIC, broth microdilution, P. aeruginosa ATCC 27853 spontaneous mutant, AA139 selection 4X, plate 2, colony 4, drug-free passage 1
  MIC: 0.5 µg/mL (≈ 1.3 µM)
[4]; ATCC27853, read-out: MIC, broth microdilution, P. aeruginosa ATCC 27853 spontaneous mutant, AA139 selection 4X, plate 2, colony 4, drug-free passage 5
  MIC: 0.25 µg/mL (≈ 0.652 µM)
[4]; ATCC27853, read-out: MIC, broth microdilution, P. aeruginosa ATCC 27853 spontaneous mutant, AA139 selection 8X, plate 1, colony 1, drug-free passage 1
  MIC: 0.5 µg/mL (≈ 1.3 µM)
[4]; ATCC27853, read-out: MIC, broth microdilution, P. aeruginosa ATCC 27853 spontaneous mutant, AA139 selection 8X, plate 1, colony 1, drug-free passage 5
  MIC: 0.5 µg/mL (≈ 1.3 µM)
[4]; ATCC27853, read-out: MIC, broth microdilution, P. aeruginosa ATCC 27853 spontaneous mutant, AA139 selection 8X, plate 1, colony 2, drug-free passage 1
  MIC: 0.25 µg/mL (≈ 0.652 µM)
[4]; ATCC27853, read-out: MIC, broth microdilution, P. aeruginosa ATCC 27853 spontaneous mutant, AA139 selection 8X, plate 1, colony 2, drug-free passage 5
  MIC: 0.5 µg/mL (≈ 1.3 µM)
[4]; ATCC27853, read-out: MIC, broth microdilution, P. aeruginosa ATCC 27853 spontaneous mutant, AA139 selection 8X, plate 1, colony 3, drug-free passage 1
  MIC: 0.25 µg/mL (≈ 0.652 µM)
[4]; ATCC27853, read-out: MIC, broth microdilution, P. aeruginosa ATCC 27853 spontaneous mutant, AA139 selection 8X, plate 1, colony 3, drug-free passage 5
  MIC: 0.25 µg/mL (≈ 0.652 µM)
[4]; ATCC27853, read-out: MIC, broth microdilution, P. aeruginosa ATCC 27853 spontaneous mutant, AA139 selection 8X, plate 1, colony 4, drug-free passage 1
  MIC: 0.5 µg/mL (≈ 1.3 µM)
[4]; ATCC27853, read-out: MIC, broth microdilution, P. aeruginosa ATCC 27853 spontaneous mutant, AA139 selection 8X, plate 1, colony 4, drug-free passage 5
  MIC: 0.5 µg/mL (≈ 1.3 µM)
[4]; ATCC27853, read-out: MIC, broth microdilution, P. aeruginosa ATCC 27853 spontaneous mutant, AA139 selection 8X, plate 1, colony 5, drug-free passage 1
  MIC: 0.5 µg/mL (≈ 1.3 µM)
[4]; ATCC27853, read-out: MIC, broth microdilution, P. aeruginosa ATCC 27853 spontaneous mutant, AA139 selection 8X, plate 1, colony 5, drug-free passage 5
  MIC: 0.25 µg/mL (≈ 0.652 µM)
[4]; read-out: BMD MIC, P. aeruginosa FADDI-070, MDR, PmxR, MHB/CAMHB, mode of 6 replicates
  MIC: 1 µg/mL (≈ 2.61 µM)
[4]; read-out: MIC, broth microdilution, P. aeruginosa UNT 138-1 spontaneous mutant, AA139 selection 4X, plate 1, colony 1, drug-free passage 1
  MIC: 0.12 µg/mL (≈ 0.313 µM)
[4]; read-out: MIC, broth microdilution, P. aeruginosa UNT 138-1 spontaneous mutant, AA139 selection 4X, plate 1, colony 1, drug-free passage 5
  MIC: 0.12 µg/mL (≈ 0.313 µM)
[4]; read-out: MIC, broth microdilution, P. aeruginosa UNT 138-1 spontaneous mutant, AA139 selection 4X, plate 1, colony 2, drug-free passage 1
  MIC: 0.12 µg/mL (≈ 0.313 µM)
[4]; read-out: MIC, broth microdilution, P. aeruginosa UNT 138-1 spontaneous mutant, AA139 selection 4X, plate 1, colony 2, drug-free passage 5
  MIC: 0.25 µg/mL (≈ 0.652 µM)
